Assays:
[1] = system: isolated cultured human islets; test: RNA-Seq gene expression in isolated cultured human islets with or without Raloxifene; type: cell-based; conditions: for % decrease in gene expression: 10 nM Raloxifene vs control
Method: FIG. 1: Inhibition of estrogen receptor signaling prevents dedifferentiation in cultured islets. Islets were either untreated or treated with an estrogen receptor selective estrogen receptor modulator (SERM; 10 nM Raloxifene). RNA-Seq analysis of cultured islets was performed following 4 days in culture. Raloxifene treatment was for one day on the final day of culture. Expression levels of individual genes were calculated by the method of RPKM (reads per kilobase per million mapped reads). Data is represented as the log of the ratio (Islets-Raloxifene: Islets-no treatment) where positive values indicate an increase in gene expression with Raloxifene treatment. […] (IL-8, CXXL6, SERPINB2, OLFM4).
Following isolation, the islet cell clusters are cultured in Connaught Medical Research Laboratory 1066 medium supplemented with 10 nM Raloxifene. These are the conditions described in the legend to FIG. 1.
An inflammatory gene expression profile is evoked following human islet isolation and culture and suppressed by Raloxifene treatment. Gene expression was assessed in isolated cultured human islets on multiple days following the isolation procedure. Islets were cultured in standard CMRL media with or without the addition of Raloxifene and gene expression profiles were assessed by RNA-Seq. In table 2A, the progressive increase of NFkB-target gene expression is observed over consecutive days in culture. Of note, significant increases in canonical NFkB targets (CCL2, CCL20, IL1B) as well as NFkB coordinately regulated gene clusters, such as the innate immunity gene cluster (APOL1-APOL6) were observed. In table 2B, Raloxifene treatment (10 nM) suppressed gene expression of the innate immunity gene cluster (APOL1-APOL6) which is typically observed to increase with the isolation and culture of human islets. Gene expression was assessed with RNA-Seq and quantification of gene transcripts is represented as RPKM ([…]). Note, three genes (APOL1, APOL2, and APOL6) in the innate immunity gene cluster were each reduced by Raloxifene treatment.

autoimmune diabetes = conditions: treatment of recipient NOD.scid mice before transfer of BDC-2.5 clone; cited from earlier work

O=C(c1ccc(OCCN2CCCCC2)cc1)c1c(-c2ccc(O)cc2)sc2cc(O)ccc12 [Raloxifene]
endocrine phenotype of isolated islet cultures [1]: preserved the endocrine phenotype
gene expression of the innate immunity gene cluster (APOL1-APOL6) ([1]; 10 nM Raloxifene): suppressed
% decrease in gene expression ([1]; APOL1 gene): 15%
RPKM (Ral) ([1]; APOL1 gene, 10 nM Raloxifene, control 2.1): 1.8 RPKM
% decrease in gene expression ([1]; APOL2 gene): 68%
RPKM (Ral) ([1]; APOL2 gene, 10 nM Raloxifene, control 13.6): 4.3 RPKM
% decrease in gene expression ([1]; APOL6 gene): 41%
RPKM (Ral) ([1]; APOL6 gene, 10 nM Raloxifene, control 1.5): 0.9 RPKM
expression of housekeeping genes ([1]; GAPDH, ACTB, B2M, 10 nM, one day on final day of 4 days culture): without effect
increase in expression of inflammatory genes and genes associated with a dedifferentiation profile ([1]; IL-8, CXXL6, SERPINB2, OLFM4, 10 nM, one day on final day of 4 days culture): prevented
expression of genes associated with a differentiated phenotype ([1]; SYT8, INS, 10 nM, one day on final day of 4 days culture): increased expression

CCN1C=CC=C/C1=C1/C2=NC(=C(c3cccc[n+]3CC)C3=NC(=C(c4cccc[n+]4CC)c4ccc([n-]4)C(c4cccc[n+]4CC)=C4C=CC1=N4)C=C3)C=C2.[Cl-].[Cl-].[Cl-].[Cl-].[Cl-].[Mn+3] [AEOL-10113]
onset of diabetes (disease) (autoimmune diabetes): significantly delayed or prevented altogether

— patent US20150361400A1, “COMPOSITIONS AND METHODS FOR MAINTAINING AND IMPROVING PANCREATIC ISLET CELL FUNCTION AND STABILITY” (WAKE FOREST UNIVERSITY HEALTH SCIENCES, priority 2013, published 2015)
